From patent US20250115569A1, “SULFONAMIDE COMPOUNDS FOR THE TREATMENT OF NEUROLOGICAL CONDITIONS” (LARIO THERAPEUTICS LIMITED, priority 2021, published 2025)

Biological target: Cav2.3 (Homo sapiens, UniProt Q15878)
Assay: Human Cav2.3 channel calcium-influx assay
Assay type: cell-based
Conditions: Fluo8 fluorescence, HEK-293 T-Rex/Kir2.1/Cav2.3e cells, without pluronic acid, read-out: Cav2.3 (pIC50) (converted)
How it was run: (§1)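 HEK-293 T-Rex/Kir2.1 cells with doxycycline (0.2 μg/mL)-inducible Cav2.3e plus Cavβ4-α2δ1, loaded with Fluo8 NW in 0 mM K+ Tyrode's. Compounds (8 points, top 30 μM, half-log, 0.3% final DMSO, n=4) preincubated 3 min at RT, then depolarized with 20 mM KCl/2 mM CaCl2 (final); fluorescence read 130 s.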

Chain of Cav2.3 (Q15878 whole entry, looked up): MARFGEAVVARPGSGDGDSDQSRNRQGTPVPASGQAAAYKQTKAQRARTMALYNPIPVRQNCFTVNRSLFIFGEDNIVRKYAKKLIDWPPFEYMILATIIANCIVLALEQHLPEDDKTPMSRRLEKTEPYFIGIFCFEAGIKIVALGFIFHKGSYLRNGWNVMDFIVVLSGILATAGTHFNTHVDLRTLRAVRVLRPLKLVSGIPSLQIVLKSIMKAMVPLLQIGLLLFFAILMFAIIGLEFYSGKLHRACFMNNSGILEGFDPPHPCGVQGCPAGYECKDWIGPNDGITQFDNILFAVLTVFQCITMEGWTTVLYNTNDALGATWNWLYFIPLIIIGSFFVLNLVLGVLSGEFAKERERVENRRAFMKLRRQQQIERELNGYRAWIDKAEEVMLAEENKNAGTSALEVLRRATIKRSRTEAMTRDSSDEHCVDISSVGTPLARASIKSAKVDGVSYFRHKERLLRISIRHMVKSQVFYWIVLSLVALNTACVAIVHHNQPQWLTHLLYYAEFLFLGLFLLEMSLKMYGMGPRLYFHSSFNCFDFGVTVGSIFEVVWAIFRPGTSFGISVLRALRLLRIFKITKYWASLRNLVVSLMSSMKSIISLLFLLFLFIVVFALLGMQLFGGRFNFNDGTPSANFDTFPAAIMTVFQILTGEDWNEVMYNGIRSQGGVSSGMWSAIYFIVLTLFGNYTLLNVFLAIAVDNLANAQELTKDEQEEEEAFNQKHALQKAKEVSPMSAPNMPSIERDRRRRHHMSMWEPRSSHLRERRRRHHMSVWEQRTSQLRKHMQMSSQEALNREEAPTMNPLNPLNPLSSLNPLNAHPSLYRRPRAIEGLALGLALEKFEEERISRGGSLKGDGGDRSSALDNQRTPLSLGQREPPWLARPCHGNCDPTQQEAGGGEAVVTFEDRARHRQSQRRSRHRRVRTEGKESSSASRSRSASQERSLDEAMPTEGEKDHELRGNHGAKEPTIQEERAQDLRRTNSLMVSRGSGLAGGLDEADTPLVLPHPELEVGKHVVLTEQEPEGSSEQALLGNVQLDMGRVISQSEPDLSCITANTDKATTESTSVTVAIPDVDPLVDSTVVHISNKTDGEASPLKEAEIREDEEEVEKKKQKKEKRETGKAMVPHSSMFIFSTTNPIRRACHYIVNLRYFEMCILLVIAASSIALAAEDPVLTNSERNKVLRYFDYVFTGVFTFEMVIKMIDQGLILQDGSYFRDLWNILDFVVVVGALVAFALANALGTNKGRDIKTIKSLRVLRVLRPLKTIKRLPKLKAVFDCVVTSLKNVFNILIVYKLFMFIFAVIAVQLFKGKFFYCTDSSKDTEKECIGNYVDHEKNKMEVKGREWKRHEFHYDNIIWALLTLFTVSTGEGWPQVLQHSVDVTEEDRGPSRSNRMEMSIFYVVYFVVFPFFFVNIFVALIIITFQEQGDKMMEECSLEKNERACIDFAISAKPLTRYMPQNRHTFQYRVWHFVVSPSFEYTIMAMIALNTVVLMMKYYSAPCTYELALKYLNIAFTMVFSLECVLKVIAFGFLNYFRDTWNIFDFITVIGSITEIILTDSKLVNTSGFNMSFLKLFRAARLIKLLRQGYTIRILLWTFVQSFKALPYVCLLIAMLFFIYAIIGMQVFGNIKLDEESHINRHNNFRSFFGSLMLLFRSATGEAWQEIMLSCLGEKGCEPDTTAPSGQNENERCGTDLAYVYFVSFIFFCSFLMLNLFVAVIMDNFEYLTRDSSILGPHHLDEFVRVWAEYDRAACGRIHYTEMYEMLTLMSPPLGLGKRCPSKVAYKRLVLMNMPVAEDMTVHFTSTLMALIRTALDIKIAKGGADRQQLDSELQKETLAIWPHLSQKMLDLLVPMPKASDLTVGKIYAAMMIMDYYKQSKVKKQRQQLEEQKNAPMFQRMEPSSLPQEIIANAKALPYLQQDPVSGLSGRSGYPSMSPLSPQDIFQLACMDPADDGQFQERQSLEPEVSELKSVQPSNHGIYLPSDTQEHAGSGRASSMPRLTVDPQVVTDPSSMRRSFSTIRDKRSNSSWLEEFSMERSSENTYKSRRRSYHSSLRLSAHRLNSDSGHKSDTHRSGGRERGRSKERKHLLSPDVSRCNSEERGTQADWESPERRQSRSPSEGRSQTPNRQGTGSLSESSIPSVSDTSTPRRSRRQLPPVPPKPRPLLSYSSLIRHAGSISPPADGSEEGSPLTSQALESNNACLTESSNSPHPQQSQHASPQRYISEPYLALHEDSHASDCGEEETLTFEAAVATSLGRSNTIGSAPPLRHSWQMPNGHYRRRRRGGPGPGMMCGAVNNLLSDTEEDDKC

Row | IC50 [nM] | Compound
1 | 575 | CCN([C@H](c1ccc(F)cc1)C(F)(F)F)S(=O)(=O)c1cnc2c(C#N)cnn2c1 [Example 141, (R)-3-cyano-N-ethyl-N-(2,2,2-trifluoro-1-(4-fluorophenyl)ethyl)pyrazolo[1,5-a]pyrimidine-6-sulfonamide]
2 | 275 | CCN([C@H](c1ccc(F)cc1)C(F)(F)F)S(=O)(=O)c1ccn2nnnc2c1 [Example 158, (R)—N-ethyl-N-(2,2,2-trifluoro-1-(4-fluorophenyl)ethyl)tetrazolo[1,5-a]pyridine-7-sulfonamide]
3 | 28.2 | [2H]C([2H])([2H])N([C@H](c1ccc(Cl)cc1)C(F)(F)F)S(=O)(=O)c1cncc(C#N)c1 [Example 227, (R)—N-(1-(4-chlorophenyl)-2,2,2-trifluoroethyl)-5-cyano-N-(methyl-d3)pyridine-3-sulfonamide]
4 | 4170 | CCN([C@H](c1ccc(F)cc1)C(F)(F)F)S(=O)(=O)c1nc2ccccn2c1Cl [Example 143, (R)-3-chloro-N-ethyl-N-(2,2,2-trifluoro-1-(4-fluorophenyl)ethyl)imidazo[1,2-a]pyridine-2-sulfonamide]
5 | 1780 | CCN([C@H](c1ccc(F)cc1)C(F)(F)F)S(=O)(=O)c1nc2cnccn2n1 [Example 144, (R)—N-ethyl-N-(2,2,2-trifluoro-1-(4-fluorophenyl)ethyl)-[1,2,4]triazolo[1,5-a]pyrazine-2-sulfonamide]
6 | 105 | Cc1ccc([C@@H](N(C)S(=O)(=O)c2cncc(C#N)c2)C(F)(F)F)cc1 [Example 225, (R)-5-cyano-N-methyl-N-(2,2,2-trifluoro-1-(p-tolyl)ethyl)pyridine-3-sulfonamide]
7 | 17.4 | CCN([C@H](c1ccc(F)cc1)C(F)(F)F)S(=O)(=O)c1ccc2nccn2c1 [Example 146, (R)—N-ethyl-N-(2,2,2-trifluoro-1-(4-fluorophenyl)ethyl)imidazo[1,2-a]pyridine-6-sulfonamide]
8 | 5750 | CCN([C@H](c1ccc(F)cc1)C(F)(F)F)S(=O)(=O)c1ccc2nnc(C(F)(F)F)n2n1 [Example 169, (R)—N-ethyl-N-(2,2,2-trifluoro-1-(4-fluorophenyl)ethyl)-3-(trifluoromethyl)-[1,2,4]triazolo[4,3-b]pyridazine-6-sulfonamide]
9 | 123 | CCN([C@H](c1ccc(F)cc1)C(F)(F)F)S(=O)(=O)c1cnc2ccnn2c1 [Example 165, (R)—N-ethyl-N-(2,2,2-trifluoro-1-(4-fluorophenyl)ethyl)pyrazolo[1,5-a]pyrimidine-6-sulfonamide]
10 | 4270 | CCN([C@@H](c1ccc(OC)cc1)C(F)(F)F)S(=O)(=O)c1cncc(F)c1 [Example 256, (S)—N-ethyl-5-fluoro-N-(2,2,2-trifluoro-1-(4-methoxyphenyl)ethyl)pyridine-3-sulfonamide]
11 | 288 | CN([C@H](c1ccc(Cl)cc1)C(F)(F)F)S(=O)(=O)c1ccn2nncc2c1 [Example 202, (R)—N-(1-(4-chlorophenyl)-2,2,2-trifluoroethyl)-N-methyl-[1,2,3]triazolo[1,5-a]pyridine-5-sulfonamide]

Further lines, the compound ahead of its results:

Row | Compound | IC50 [nM]
12 | CCN([C@H](c1ccc(OC(F)(F)F)cc1)C(F)(F)F)S(=O)(=O)c1cncc(C#N)c1 [Example 119, (R)-5-Cyano-N-ethyl-N-(2,2,2-trifluoro-1-(4-(trifluoromethoxy)phenyl)ethyl)pyridine-3-sulfonamide] | 87.1
13 | CCN([C@H](c1ccc(F)cc1)C(F)(F)F)S(=O)(=O)c1ccc(=O)n(C)c1 [Example 101, (R)—N-ethyl-1-methyl-6-oxo-N-(2,2,2-trifluoro-1-(4-fluorophenyl)ethyl)-1,6-dihydropyridine-3-sulfonamide] | 182
14 | CN([C@@H](c1ccc(C(F)(F)F)cc1)C(F)(F)F)S(=O)(=O)c1cncc(C#N)c1 [Example 69, (S)-5-Cyano-N-methyl-N-(2,2,2-trifluoro-1-(4-(trifluoromethyl)phenyl)ethyl)pyridine-3-sulfonamide] | 5620
15 | CCN(C(c1ccc(F)cc1)C(F)(F)F)S(=O)(=O)c1csc(C(=O)OC)n1 (centres unmarked) [Example 48, methyl 4-(N-ethyl-N-(2,2,2-trifluoro-1-(4-fluorophenyl)ethyl)sulfamoyl)thiazole-2-carboxylate] | 2000
16 | CCN([C@@H](c1ccc(OC)cc1)C(F)(F)F)S(=O)(=O)C1CCOCC1 [Example 126, (S)—N-ethyl-N-(2,2,2-trifluoro-1-(4-methoxyphenyl)ethyl)tetrahydro-2H-pyran-4-sulfonamide] | 30200
17 | N#Cc1cncc(S(=O)(=O)N(CCF)C(c2ccc(F)cc2)C(F)(F)F)c1 (centres unmarked) [Example 64, 5-Cyano-N-(2-fluoroethyl)-N-(2,2,2-trifluoro-1-(4-fluorophenyl)ethyl)pyridine-3-sulfonamide] | 178
18 | CCN(C(c1ccc(F)cc1)C(F)(F)F)S(=O)(=O)c1ccc(C(N)=O)s1 (centres unmarked) [Example 22, 5-(N-ethyl-N-(2,2,2-trifluoro-1-(4-fluorophenyl)ethyl)sulfamoyl)thiophene-2-carboxamide] | 741
19 | CCN(C(c1ccc(F)cc1)C(F)(F)F)S(=O)(=O)c1csc(C(N)=O)n1 (centres unmarked) [Example 49, 4-(N-ethyl-N-(2,2,2-trifluoro-1-(4-fluorophenyl)ethyl)sulfamoyl)thiazole-2-carboxamide] | 339

Tested on: Human Cav2.3 channel
Assay: Human Cav2.3 channel calcium-influx assay
Assay type: cell-based
Conditions: Fluo8 fluorescence, HEK-293 T-Rex/Kir2.1/Cav2.3e cells, without pluronic acid
How it was run: as §1

Row | Cav2.3 (pIC50) | Compound
20 | 5.76 | CN([C@H](c1ccc(F)cc1)C(F)(F)F)S(=O)(=O)c1ccc2c(c1)OC(F)(F)O2 [Example 163, (R)-2,2-difluoro-N-methyl-N-(2,2,2-trifluoro-1-(4-fluorophenyl)ethyl)benzo[d][1,3]dioxole-5-sulfonamide]
21 | 6.65 | CN([C@H](c1ccc(Cl)cc1)C(F)(F)F)S(=O)(=O)c1cnc2[nH]cnc2c1 [Example 193, (R)—N-(1-(4-chlorophenyl)-2,2,2-trifluoroethyl)-N-methyl-3H-imidazo[4,5-b]pyridine-6-sulfonamide]
22 | 6.38 | CN([C@H](c1ccc(C(F)(F)F)cc1)C(F)(F)F)S(=O)(=O)c1ccc2nccn2c1 [Example 234, (R)—N-methyl-N-(2,2,2-trifluoro-1-(4-(trifluoromethyl)phenyl)ethyl)imidazo[1,2-a]pyridine-6-sulfonamide]
23 | 5.89 | CN([C@H](c1ccc(Cl)cc1)C(F)(F)F)S(=O)(=O)c1ccc2nncn2n1 [Example 205, (R)—N-(1-(4-chlorophenyl)-2,2,2-trifluoroethyl)-N-methyl-[1,2,4]triazolo[4,3-b]pyridazine-6-sulfonamide]
24 | 5.70 | CCN([C@@H](c1ccc(F)c(C)c1)C(F)(F)F)S(=O)(=O)c1cncc(C#N)c1 [Example 245, (S)-5-cyano-N-ethyl-N-(2,2,2-trifluoro-1-(4-fluoro-3-methylphenyl)ethyl)pyridine-3-sulfonamide]
25 | 7.65 | CCN([C@H](c1ccc(Cl)cc1)C(F)(F)F)S(=O)(=O)c1cncnc1 [Example 134, (R)—N-(1-(4-chlorophenyl)-2,2,2-trifluoroethyl)-N-ethylpyrimidine-5-sulfonamide]
26 | 7.17 | CN([C@H](c1ccc(C(F)(F)F)cc1)C(F)(F)F)S(=O)(=O)c1cnc2cccnn12 [Example 211, (R)—N-methyl-N-(2,2,2-trifluoro-1-(4-(trifluoromethyl)phenyl)ethyl)imidazo[1,2-b]pyridazine-3-sulfonamide]

The remaining lines, values behind:

Row | Compound | Cav2.3 (pIC50)
27 | CCN(C(c1ccc(F)cc1)C(F)(F)F)S(=O)(=O)c1ccc2c(c1)COC2 (centres unmarked) [Example 36, N-ethyl-N-(2,2,2-trifluoro-1-(4-fluorophenyl)ethyl)-1,3-dihydroisobenzofuran-5-sulfonamide] | 6.58
28 | CCN([C@H](c1ccc(F)cc1)C(F)(F)F)S(=O)(=O)c1ccc2c(c1)OCC2 [Example 40, (R)—N-ethyl-N-(2,2,2-trifluoro-1-(4-fluorophenyl)ethyl)-2,3-dihydrobenzofuran-6-sulfonamide] | 5.62
29 | CCN(C(c1ccc(F)cc1)C(F)(F)F)S(=O)(=O)c1cc(C)c(Cl)s1 (centres unmarked) [Example 31, 5-chloro-N-ethyl-4-methyl-N-(2,2,2-trifluoro-1-(4-fluorophenyl)ethyl)thiophene-2-sulfonamide] | 6.43
30 | CCN(C(c1ccc(F)cc1)C(F)(F)F)S(=O)(=O)c1ccc(F)s1 (centres unmarked) [Example 14, N-ethyl-5-fluoro-N-(2,2,2-trifluoro-1-(4-fluorophenyl)ethyl)thiophene-2-sulfonamide] | 5.64
31 | CCN([C@H](c1ccc(F)cc1)C(F)(F)F)S(=O)(=O)c1ccc(F)s1 [Example 16, (R)—N-ethyl-5-fluoro-N-(2,2,2-trifluoro-1-(4-fluorophenyl)ethyl)thiophene-2-sulfonamide] | 5.78
32 | CCN(C(c1ccc(F)cc1)C(F)(F)F)S(=O)(=O)c1csc(C#N)c1 (centres unmarked) [Example 42, 5-Cyano-N-ethyl-N-(2,2,2-trifluoro-1-(4-fluorophenyl)ethyl)thiophene-3-sulfonamide] | 6.90
33 | CCN(C(c1cccc(OC)c1)C(F)(F)F)S(=O)(=O)c1cncc(C#N)c1 (centres unmarked) [Example 71, 5-Cyano-N-ethyl-N-(2,2,2-trifluoro-1-(3-methoxyphenyl)ethyl)pyridine-3-sulfonamide] | 6.80
34 | CCN(C(c1ccc(OC)cc1)C(F)(F)F)S(=O)(=O)C1CCOCC1 (centres unmarked) [Example 124, N-ethyl-N-(2,2,2-trifluoro-1-(4-methoxyphenyl)ethyl)tetrahydro-2H-pyran-4-sulfonamide] | 6.11
35 | CCN([C@H](c1ccc(C)cc1)C(F)(F)F)S(=O)(=O)c1cncc(C#N)c1 [Example 106, (R)-5-Cyano-N-ethyl-N-(2,2,2-trifluoro-1-(p-tolyl)ethyl)pyridine-3-sulfonamide] | 7.51
